In the NIST ThermoML archive (doi:10.1016/j.jct.2012.08.022):
Numbers after ± are expanded uncertainties.

Key:
[1] = activity coefficient (dimensionless); of the first substance listed, at infinite dilution; xn = mol fraction of the nth substance listed; details: Liquid, Chromatography, x1 = 0
[2] = 101.33 kPa, Liquid, vibrating tube

Compound `COCCOC` [1,2-dimethoxyethane] + CCCCn1cc[n+](C)c1.O=S(=O)([O-])O has an activity coefficient ([1]; 313 K) of 4.76 ± 0.32, an activity coefficient ([1]; 333 K) of 5.61 ± 0.38 and an activity coefficient ([1]; 353 K) of 7.03 ± 0.48. For the same compound, the activity coefficient ([1]; 373 K) was 8.44 ± 0.58, the activity coefficient ([1]; 393 K) was 10 ± 0.7 and the activity coefficient ([1]; 413 K) was 11.6 ± 0.8.
`COCCOC` [1,2-dimethoxyethane] + Cn1cc[n+](C[Si](C)(C)C)c1.[Cl-] gave an activity coefficient ([1]; 313 K) of 3.42 ± 0.23, an activity coefficient ([1]; 333 K) of 3.49 ± 0.24 and an activity coefficient ([1]; 353 K) of 3.56 ± 0.24. For the same compound, the activity coefficient ([1]; 373 K) was 3.89 ± 0.26, the activity coefficient ([1]; 393 K) was 3.89 ± 0.26 and the activity coefficient ([1]; 413 K) was 3.77 ± 0.26.
With `C1COCCO1` [1,4-dioxane] + CCCCn1cc[n+](C)c1.O=S(=O)([O-])O the activity coefficient ([1]; 313 K) was 2.72 ± 0.19, the activity coefficient ([1]; 333 K) was 2.78 ± 0.19 and the activity coefficient ([1]; 353 K) was 2.99 ± 0.2. The activity coefficient ([1]; 373 K) was 3.36 ± 0.23, the activity coefficient ([1]; 393 K) was 3.8 ± 0.26 and the activity coefficient ([1]; 413 K) was 4.41 ± 0.3.
Work on `C1COCCO1` [1,4-dioxane] + Cn1cc[n+](C[Si](C)(C)C)c1.[Cl-] yielded an activity coefficient ([1]; 313 K) of 2.14 ± 0.15, an activity coefficient ([1]; 333 K) of 1.95 ± 0.13 and an activity coefficient ([1]; 353 K) of 2.07 ± 0.14. The activity coefficient ([1]; 373 K) was 2.13 ± 0.14, the activity coefficient ([1]; 393 K) was 2.16 ± 0.15 and the activity coefficient ([1]; 413 K) was 2.28 ± 0.16.
Compound `CCCCn1cc[n+](C)c1.O=S(=O)([O-])O` [1-butyl-3-methylimidazolium hydrogen sulfate] has a mass density ([2]; 303 K) of 1275.9 ± 0.4 kg/m3, a mass density ([2]; 308 K) of 1272.5 ± 0.4 kg/m3 and a mass density ([2]; 313 K) of 1269 ± 0.4 kg/m3. For the same compound, the mass density ([2]; 318 K) was 1266.4 ± 0.4 kg/m3, the mass density ([2]; 323 K) was 1263.4 ± 0.4 kg/m3 and the mass density ([2]; 328 K) was 1260.4 ± 0.4 kg/m3. It also gave a mass density ([2]; 333 K) of 1257.4 ± 0.4 kg/m3, a mass density ([2]; 338 K) of 1254.5 ± 0.4 kg/m3 and a mass density ([2]; 343 K) of 1251.5 ± 0.4 kg/m3. It also gave a mass density ([2]; 348 K) of 1248.6 ± 0.4 kg/m3, a mass density ([2]; 353 K) of 1245.7 ± 0.4 kg/m3 and a mass density ([2]; 358 K) of 1242.8 ± 0.4 kg/m3. The mass density ([2]; 363 K) was 1240 ± 0.4 kg/m3.
For `Cn1cc[n+](C[Si](C)(C)C)c1.[Cl-]` [1-methyl-3-(trimethylsilylmethyl)imidazolium chloride], the mass density ([2]; 313 K) was 1055.9 ± 1 kg/m3, the mass density ([2]; 318 K) was 1053 ± 0.9 kg/m3 and the mass density ([2]; 323 K) was 1050.1 ± 0.9 kg/m3. For the same compound, the mass density ([2]; 328 K) was 1047.2 ± 0.9 kg/m3, the mass density ([2]; 333 K) was 1044.1 ± 0.9 kg/m3 and the mass density ([2]; 338 K) was 1040.9 ± 0.9 kg/m3. The mass density ([2]; 343 K) was 1038.1 ± 0.9 kg/m3, the mass density ([2]; 348 K) was 1035.3 ± 0.9 kg/m3 and the mass density ([2]; 353 K) was 1032.4 ± 0.9 kg/m3. For the same compound, the mass density ([2]; 358 K) was 1029.6 ± 0.9 kg/m3 and the mass density ([2]; 363 K) was 1026.8 ± 0.9 kg/m3.
With `CC#N` [acetonitrile] + CCCCn1cc[n+](C)c1.O=S(=O)([O-])O the activity coefficient ([1]; 313 K) was 1.23 ± 0.08, the activity coefficient ([1]; 333 K) was 1.31 ± 0.09 and the activity coefficient ([1]; 353 K) was 1.28 ± 0.08. The activity coefficient ([1]; 373 K) was 1.26 ± 0.08, the activity coefficient ([1]; 393 K) was 1.24 ± 0.08 and the activity coefficient ([1]; 413 K) was 1.19 ± 0.08.
With `CC#N` [acetonitrile] + Cn1cc[n+](C[Si](C)(C)C)c1.[Cl-] the activity coefficient ([1]; 313 K) was 0.629 ± 0.043, the activity coefficient ([1]; 333 K) was 0.659 ± 0.045 and the activity coefficient ([1]; 353 K) was 0.695 ± 0.047. It also gave an activity coefficient ([1]; 373 K) of 0.712 ± 0.047, an activity coefficient ([1]; 393 K) of 0.73 ± 0.048 and an activity coefficient ([1]; 413 K) of 0.756 ± 0.05.
`c1ccccc1` [benzene] + CCCCn1cc[n+](C)c1.O=S(=O)([O-])O showed an activity coefficient ([1]; 313 K) of 5.11 ± 0.35, an activity coefficient ([1]; 333 K) of 4.95 ± 0.34 and an activity coefficient ([1]; 353 K) of 5.36 ± 0.37. It also gave an activity coefficient ([1]; 373 K) of 5.28 ± 0.36, an activity coefficient ([1]; 393 K) of 5.49 ± 0.37 and an activity coefficient ([1]; 413 K) of 5.69 ± 0.39.
For `c1ccccc1` [benzene] + Cn1cc[n+](C[Si](C)(C)C)c1.[Cl-], the activity coefficient ([1]; 313 K) was 2.44 ± 0.17, the activity coefficient ([1]; 333 K) was 2.3 ± 0.16 and the activity coefficient ([1]; 353 K) was 2.6 ± 0.18. For the same compound, the activity coefficient ([1]; 373 K) was 2.94 ± 0.2, the activity coefficient ([1]; 393 K) was 3.85 ± 0.26 and the activity coefficient ([1]; 413 K) was 4.36 ± 0.3.
With `CCO` [ethanol] + Cn1cc[n+](C[Si](C)(C)C)c1.[Cl-] the activity coefficient ([1]; 333 K) was 0.153 ± 0.029, the activity coefficient ([1]; 353 K) was 0.158 ± 0.029 and the activity coefficient ([1]; 373 K) was 0.163 ± 0.029.
Compound `CCOC(C)=O` [ethyl acetate] + CCCCn1cc[n+](C)c1.O=S(=O)([O-])O has an activity coefficient ([1]; 313 K) of 9.02 ± 0.62, an activity coefficient ([1]; 333 K) of 9.95 ± 0.68 and an activity coefficient ([1]; 353 K) of 11.7 ± 0.8. For the same compound, the activity coefficient ([1]; 373 K) was 12.8 ± 0.9 and the activity coefficient ([1]; 393 K) was 13.8 ± 0.9.
Compound `CCOC(C)=O` [ethyl acetate] + Cn1cc[n+](C[Si](C)(C)C)c1.[Cl-] has an activity coefficient ([1]; 313 K) of 4.4 ± 0.3, an activity coefficient ([1]; 333 K) of 4.27 ± 0.29 and an activity coefficient ([1]; 353 K) of 5.14 ± 0.35. For the same compound, the activity coefficient ([1]; 373 K) was 6.96 ± 0.47 and the activity coefficient ([1]; 393 K) was 8.26 ± 0.56.
`CO` [methanol] + Cn1cc[n+](C[Si](C)(C)C)c1.[Cl-] showed an activity coefficient ([1]; 333 K) of 0.0373, an activity coefficient ([1]; 353 K) of 0.0421 and an activity coefficient ([1]; 373 K) of 0.0472.
`C[N+](=O)[O-]` [nitromethane] + CCCCn1cc[n+](C)c1.O=S(=O)([O-])O gave an activity coefficient ([1]; 313 K) of 0.826 ± 0.053, an activity coefficient ([1]; 333 K) of 0.771 ± 0.05 and an activity coefficient ([1]; 353 K) of 0.83 ± 0.053. It also gave an activity coefficient ([1]; 373 K) of 0.939 ± 0.059, an activity coefficient ([1]; 393 K) of 1.08 ± 0.07 and an activity coefficient ([1]; 413 K) of 1.18 ± 0.08.
Compound `C[N+](=O)[O-]` [nitromethane] + Cn1cc[n+](C[Si](C)(C)C)c1.[Cl-] has an activity coefficient ([1]; 313 K) of 0.449 ± 0.036, an activity coefficient ([1]; 333 K) of 0.442 ± 0.036 and an activity coefficient ([1]; 353 K) of 0.477 ± 0.037. For the same compound, the activity coefficient ([1]; 373 K) was 0.527 ± 0.039, the activity coefficient ([1]; 393 K) was 0.559 ± 0.04 and the activity coefficient ([1]; 413 K) was 0.599 ± 0.042.
Compound `CCCO` [propan-1-ol] + Cn1cc[n+](C[Si](C)(C)C)c1.[Cl-] has an activity coefficient ([1]; 333 K) of 0.0747 ± 0.03, an activity coefficient ([1]; 353 K) of 0.0878 ± 0.03 and an activity coefficient ([1]; 373 K) of 0.102 ± 0.03.
With `C1CCOC1` [tetrahydrofuran] + CCCCn1cc[n+](C)c1.O=S(=O)([O-])O the activity coefficient ([1]; 313 K) was 5.1 ± 0.35, the activity coefficient ([1]; 333 K) was 5.61 ± 0.38 and the activity coefficient ([1]; 353 K) was 6.6 ± 0.45. The activity coefficient ([1]; 373 K) was 7.34 ± 0.5 and the activity coefficient ([1]; 393 K) was 8.55 ± 0.58.
For `C1CCOC1` [tetrahydrofuran] + Cn1cc[n+](C[Si](C)(C)C)c1.[Cl-], the activity coefficient ([1]; 313 K) was 3.09 ± 0.21, the activity coefficient ([1]; 333 K) was 2.93 ± 0.2 and the activity coefficient ([1]; 353 K) was 3.7 ± 0.25. For the same compound, the activity coefficient ([1]; 373 K) was 4.31 ± 0.29 and the activity coefficient ([1]; 393 K) was 4.79 ± 0.33.
`Cc1ccccc1` [toluene] + CCCCn1cc[n+](C)c1.O=S(=O)([O-])O gave an activity coefficient ([1]; 313 K) of 8.51 ± 0.58, an activity coefficient ([1]; 333 K) of 9.22 ± 0.63 and an activity coefficient ([1]; 353 K) of 9.7 ± 0.66. For the same compound, the activity coefficient ([1]; 373 K) was 11.1 ± 0.8, the activity coefficient ([1]; 393 K) was 13 ± 0.9 and the activity coefficient ([1]; 413 K) was 13.9 ± 1.
For `Cc1ccccc1` [toluene] + Cn1cc[n+](C[Si](C)(C)C)c1.[Cl-], the activity coefficient ([1]; 313 K) was 4.1 ± 0.28, the activity coefficient ([1]; 333 K) was 3.8 ± 0.26 and the activity coefficient ([1]; 353 K) was 4.07 ± 0.28. It also gave an activity coefficient ([1]; 373 K) of 4.67 ± 0.32, an activity coefficient ([1]; 393 K) of 5.46 ± 0.37 and an activity coefficient ([1]; 413 K) of 6.21 ± 0.42.
Compound `ClC(Cl)Cl` [trichloromethane] + Cn1cc[n+](C[Si](C)(C)C)c1.[Cl-] has an activity coefficient ([1]; 313 K) of 0.112 ± 0.03, an activity coefficient ([1]; 333 K) of 0.153 ± 0.029 and an activity coefficient ([1]; 353 K) of 0.2 ± 0.029. The activity coefficient ([1]; 373 K) was 0.253 ± 0.03, the activity coefficient ([1]; 393 K) was 0.301 ± 0.031 and the activity coefficient ([1]; 413 K) was 0.338 ± 0.032.
